Results taken from patent publication US9815826B2, “Crystal of azole benzene derivative” (TEIJIN PHARMA LIMITED, priority 2014, dated 2017).

Tests used:
[1] = target: T1, oxidase-type xanthine oxidoreductase (XO activity) (Rattus norvegicus, UniProt P22985); experiment: Prolonged inhibitory effect on tissue and plasma XO activity (pterin-based assay after oral dosing); format: in vivo, Sprague-Dawley male rats; settings: about 27 hours after administration
T1 construct: frozen tissues were homogenized with potassium phosphate buffer; from tissue; host or cells: rat liver, kidney, vessel homogenate supernatants and plasma (ex vivo after oral dosing)
Excerpt: (§1) For “xanthine oxidase” in the present invention, as far as this example, oxidative reaction catalyzing activities which are brought by oxidase-type xanthine oxidoreductase solely and by both oxidase-type and dehydrogenase-type xanthine oxidoreductase are distinguished. The former is “XO activity” and the latter is “XOR activity”. In “tissue XO activity”, “plasma XO activity”, “tissue XOR activity inhibition”, “tissue XOR activity inhibition” and the like, “XO activity” and “XOR activity” have the same meanings as defined above. The tissue includes liver, kidney and vessel. In addition, percentage of XO activity inhibition and that of […] in same sample are thought to be similar, according to the results below.
(§2) The inhibitory effect of tissue XO activity, tissue XOR activity and plasma XO activity was confirmed for 2-[4-(2,2-dimethylpropoxy)-3-(1H-1,2,3,4-tetrazol-1-yl)phenyl]-4-methyl-1,3-thiazole-5-carboxylic acid. A test compound suspended in a 0.5% methylcellulose solution was forcedly administered to 7 to 9 week-old Sprague-Dawley male rats (Japan Charles River Co.) by oral gavage administration using a feeding needle. The blood was collected from the abdominal vein and tissue was collected at 24 or 27 hours after administration. Plasma sample was prepared by centrifugation.
(§3) The tissue XO activity, the tissue XOR activity and the plasma XO activity were measured by the pterin-based assay which utilizes the reaction that pterin is oxidized by each type of xanthine oxidoreductase to produce fluorescent isoxanthopterin. In brief, frozen tissues were homogenized with potassium phosphate buffer, pH 7.4, containing 1 mM ethylenediaminetetraacetic acid (EDTA) and protease inhibitors to prepare tissue concentration as follow (liver: 25 mg/mL, kidney: 25 mg/mL, vessel: 30 mg/mL). Then the homogenates were centrifuged 12,000 rpm for 15 min at 4° C. When measured XO activity, the supernatant of tissue and plasma were respectively co-incubated with 50 μM pterin solution at 37° C. When measured XOR activity, the supernatant of tissue homogenate was co-incubated with 50 μM pterin and 50 μM methylene blue solution at 37° C. As a control, oxidase-type xanthine oxidoreductase (from buttermilk, manufactured by Calbiochem Novabiochem Corp.) was also incubated with pterin solution in the same manner. XO activity and XOR activity of the samples were determined from fluorescence intensity which normalized by the intensity value of control and protein concentration.
(§4) The percentage of XO activity inhibition and XOR activity inhibition were determined by the following expression: Percentage of XO or XOR activity inhibition (%)=(XO or XOR activity of the control animal−XO or XOR activity of the test compound-administered animal)×100/XO or XOR activity of the control animal.

[2] = test system: level of uric acid in the blood; experiment: Hypouricemic effect (normal rats), 2 hours after administration; format: in vivo, Sprague-Dawley male rats; settings: oral
Procedure: The hypouricemic effect was confirmed for 2-[4-(2,2-dimethylpropoxy)-3-(1H-1,2,3,4-tetrazol-1-yl)phenyl]-4-methyl-1,3-thiazole-5-carboxylic acid. A test compound suspended in a 0.5% methylcellulose solution was forcibly administered to 8 to 9 week-old Sprague-Dawley male rats (Japan Charles River Co.) by oral gavage administration using a feeding needle. After the blood was collected from the tail vein at 2 hours after administration, the plasma was separated. The level of uric acid in the blood sample was measured by uricase method using an absorption spectrometer as well as a uric acid determination kit (L type Wako UA F: Wako Pure Chemical Industries, Ltd.). The percentage of hypouricemic effect was determined by the following expression: Percentage of hypouricemic effect (%)=(Level of uric acid of the control animal−Level of uric acid of the test compound-administered animal)×100/Level of uric acid of the control animal.

[3] = test system: level of uric acid in the blood; experiment: Prolonged hypouricemic effect (normal rats), 24 hours after administration; format: in vivo, Sprague-Dawley male rats; settings: oral
Procedure: 2-[4-(2,2-dimethylpropoxy)-3-(1H-1,2,3,4-tetrazol-1-yl)phenyl]-4-methyl-1,3-thiazole-5-carboxylic acid was administered to Sprague-Dawley male rats in the same manner as in Reference Example 4. After the blood was collected from the tail vein 24 hours after administration, the plasma was separated. The level of uric acid in the blood was measured by an uricase method using an absorption spectrometer and a uric acid determination kit (L type Wako UA F: Wako Pure Chemical Industries, Ltd.). The percentage of hypouricemic effect was determined by the following expression: Percentage of hypouricemic effect (%)=(Level of uric acid of the control animal−Level of uric acid of the test compound-administered animal)×100/Level of uric acid of the control animal.

[4] = target: T2, oxidase-type and dehydrogenase-type xanthine oxidoreductase (XOR activity) (Rattus norvegicus, UniProt P22985); experiment: Prolonged inhibitory effect on tissue XOR activity (pterin-based assay with methylene blue after oral dosing); format: in vivo, Sprague-Dawley male rats; settings: for XOR activity inhibition compared to the control animal: 27 hours after drug administration; for XOR inhibitory activity, % of inhibition (vs. vehicle): 24 hours after administration
T2 construct: frozen tissues were homogenized with potassium phosphate buffer; from tissue; host or cells: rat liver, kidney, vessel homogenate supernatants and plasma (ex vivo after oral dosing)
Excerpt: as §1, §2, §3, §4

[5] = target: T3, oxidase-type xanthine oxidoreductase (from buttermilk) (Bos taurus, UniProt P80457); experiment: Measurement of xanthine oxidase inhibitory activity; format: biochemical; settings: xanthine substrate, absorbance 290 nm
T3 construct: purchased Calbiochem Novabiochem Corp; host or cells: natural source: buttermilk
Procedure: After dissolving 2-[4-(2,2-dimethylpropoxy)-3-(1H-1,2,3,4-tetrazol-1-yl)phenyl]-4-methyl-1,3-thiazole-5-carboxylic acid in DMSO (produced by Sigma Corporation) so that the concentration is 20 mM, the solution was used by adjusting the concentration to a desired value for the purpose during use.
The evaluation of the xanthine oxidase inhibitory activity of 2-[4-(2,2-dimethylpropoxy)-3-(1H-1,2,3,4-tetrazol-1-yl)phenyl]-4-methyl-1,3-thiazole-5-carboxylic acid was conducted by the method described in the refference (Method Enzymatic Analysis, 1, 521-522, 1974) with partial modification. This evaluation was carried out by measuring oxidase-type xanthine oxidoreductase acrivity. […] After mixing the plate, absorbance at 290 nm was measured by a microplate reader SPECTRA MAX Plus 384 (manufactured by Molecular Devices, LLC). […] Immediately after mixing, the change of absorbance at 290 nm was measured for 5 minutes. The enzyme activity of DMSO solution without test compound was used as 100% control, and the inhibitory rate of the test compound was calculated. Fifty percent inhibitory concentration of the test compound on the oxidase-type xanthine oxidoreductase activity was calculated by fitting to the dose-response curve.

[6] = test system: level of uric acid in the plasma; experiment: Hypouricemic effect (oxonic acid-induced hyperuricemic beagle dogs); format: in vivo, beagle dog; settings: oral, 10 mg/kg, 8 hours after administration
Procedure: The hypouricemic effect of 2-[4-(2,2-dimethylpropoxy)-3-(1H-1,2,3,4-tetrazol-1-yl)phenyl]-4-methyl-1,3-thiazole-5-carboxylic acid in oxonic acid-induced hyperuricmic beagle dog was confirmed. A test compound suspended in a 0.5% methylcellulose solution was administered to beagle dog (Kitayama labes) by oral gavage administration. Potassium oxonate (50 mg/kg) was subcutaneously administrated before and 4 hours after compound administration. After the blood was collected from the cephalic vein at 8 hours after administration, the plasma was separated. The level of uric acid in the plasma sample was measured by LC-MS/MS method and the percentage of hypouricemic effect was determined by the following expression: Percentage of hypouricemic effect (%)=(Level of uric acid of the control animal−Level of uric acid of the test compound-administered animal)×100/Level of uric acid of the control animal.

T1 sequence (P22985 whole entry): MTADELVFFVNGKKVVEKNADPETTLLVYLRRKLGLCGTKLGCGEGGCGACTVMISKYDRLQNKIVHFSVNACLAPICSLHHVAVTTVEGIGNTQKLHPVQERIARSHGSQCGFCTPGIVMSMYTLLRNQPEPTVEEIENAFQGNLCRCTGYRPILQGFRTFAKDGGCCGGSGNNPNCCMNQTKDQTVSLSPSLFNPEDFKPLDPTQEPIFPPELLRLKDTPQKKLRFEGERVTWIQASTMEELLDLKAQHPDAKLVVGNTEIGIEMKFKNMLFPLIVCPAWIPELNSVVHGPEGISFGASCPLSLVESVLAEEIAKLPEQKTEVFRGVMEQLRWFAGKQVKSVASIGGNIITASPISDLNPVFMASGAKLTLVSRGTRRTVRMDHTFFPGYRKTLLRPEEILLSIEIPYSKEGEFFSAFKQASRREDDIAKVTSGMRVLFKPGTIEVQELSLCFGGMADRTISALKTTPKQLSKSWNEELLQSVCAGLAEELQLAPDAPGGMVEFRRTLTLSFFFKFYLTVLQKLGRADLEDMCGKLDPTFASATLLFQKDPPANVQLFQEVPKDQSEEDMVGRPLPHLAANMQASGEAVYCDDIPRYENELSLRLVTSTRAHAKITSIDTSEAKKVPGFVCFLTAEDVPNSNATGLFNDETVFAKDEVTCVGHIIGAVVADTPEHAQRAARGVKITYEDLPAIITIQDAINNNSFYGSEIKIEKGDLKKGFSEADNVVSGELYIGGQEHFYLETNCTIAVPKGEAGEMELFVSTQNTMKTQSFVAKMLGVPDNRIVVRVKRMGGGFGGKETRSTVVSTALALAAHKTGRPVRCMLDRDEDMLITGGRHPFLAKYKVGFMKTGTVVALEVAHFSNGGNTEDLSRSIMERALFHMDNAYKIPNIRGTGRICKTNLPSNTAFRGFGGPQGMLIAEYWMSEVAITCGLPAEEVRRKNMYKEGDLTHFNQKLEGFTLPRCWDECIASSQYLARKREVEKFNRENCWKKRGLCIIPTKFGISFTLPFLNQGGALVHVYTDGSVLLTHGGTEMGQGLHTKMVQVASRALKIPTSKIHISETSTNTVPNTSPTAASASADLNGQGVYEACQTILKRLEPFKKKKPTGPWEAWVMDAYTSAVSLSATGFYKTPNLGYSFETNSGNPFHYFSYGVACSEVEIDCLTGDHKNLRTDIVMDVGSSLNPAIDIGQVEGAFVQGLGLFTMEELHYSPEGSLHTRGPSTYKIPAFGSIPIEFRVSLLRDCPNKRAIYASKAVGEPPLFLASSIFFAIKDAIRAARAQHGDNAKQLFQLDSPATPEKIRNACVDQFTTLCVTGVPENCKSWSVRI
T2 sequence (P22985 whole entry): as above
T3 sequence (P80457 whole entry): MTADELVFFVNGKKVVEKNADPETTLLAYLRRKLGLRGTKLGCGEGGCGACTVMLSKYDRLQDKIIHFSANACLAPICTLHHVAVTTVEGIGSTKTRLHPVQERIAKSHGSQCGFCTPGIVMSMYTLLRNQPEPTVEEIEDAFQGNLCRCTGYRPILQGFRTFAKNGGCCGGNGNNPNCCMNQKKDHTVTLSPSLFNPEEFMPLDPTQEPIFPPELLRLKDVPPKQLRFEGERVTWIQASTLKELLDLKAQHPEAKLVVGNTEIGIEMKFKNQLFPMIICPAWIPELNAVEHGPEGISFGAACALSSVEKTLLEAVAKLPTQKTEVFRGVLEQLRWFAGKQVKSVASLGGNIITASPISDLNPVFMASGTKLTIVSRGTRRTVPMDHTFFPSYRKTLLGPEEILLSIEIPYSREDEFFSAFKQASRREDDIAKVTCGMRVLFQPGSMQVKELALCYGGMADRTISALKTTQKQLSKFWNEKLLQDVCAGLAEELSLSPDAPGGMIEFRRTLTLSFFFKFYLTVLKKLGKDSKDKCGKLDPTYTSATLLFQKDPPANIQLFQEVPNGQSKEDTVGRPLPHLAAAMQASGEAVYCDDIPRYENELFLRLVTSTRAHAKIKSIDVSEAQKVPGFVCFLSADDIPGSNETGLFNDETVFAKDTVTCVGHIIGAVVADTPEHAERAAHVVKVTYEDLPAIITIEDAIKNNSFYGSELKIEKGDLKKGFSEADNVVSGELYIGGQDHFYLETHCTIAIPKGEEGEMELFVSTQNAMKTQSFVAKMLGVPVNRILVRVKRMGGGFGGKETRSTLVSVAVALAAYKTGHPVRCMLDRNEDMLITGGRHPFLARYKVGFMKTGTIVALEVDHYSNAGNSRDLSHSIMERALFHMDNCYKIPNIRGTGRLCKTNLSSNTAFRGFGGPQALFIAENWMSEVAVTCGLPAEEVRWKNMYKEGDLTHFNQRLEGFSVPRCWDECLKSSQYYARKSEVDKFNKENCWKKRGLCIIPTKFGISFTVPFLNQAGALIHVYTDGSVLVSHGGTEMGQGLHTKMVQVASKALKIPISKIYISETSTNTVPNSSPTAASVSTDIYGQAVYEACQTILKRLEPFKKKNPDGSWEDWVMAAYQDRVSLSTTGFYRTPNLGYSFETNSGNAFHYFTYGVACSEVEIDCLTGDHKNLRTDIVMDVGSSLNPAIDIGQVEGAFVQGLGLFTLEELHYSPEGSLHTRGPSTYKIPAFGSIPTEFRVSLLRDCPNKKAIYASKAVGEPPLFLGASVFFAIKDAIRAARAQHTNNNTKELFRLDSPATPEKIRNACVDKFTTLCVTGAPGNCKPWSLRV

## Cc1nc(-c2ccc(OCC(C)(C)C)c(-n3cnnn3)c2)sc1C(=O)O [2-[4-(2,2-dimethylpropoxy)-3-(1H-1,2,3,4-tetrazol-1-yl)phenyl]-4-methyl-1,3-thiazole-5-carboxylic acid]
[1]; rat kidney, 1 mg/kg oral
  XO inhibitory activity, % of inhibition (vs. vehicle): ≧60%
[1]; rat kidney, 10 mg/kg oral, 10 mg/kg
  XO inhibitory activity, % of inhibition (vs. vehicle): ≧70%
[1]; rat kidney, 10 mg/kg oral, listed as present compound, 10 mg/kg
  XO inhibitory activity, % of inhibition (vs. vehicle): ≥ 70%
[1]; rat liver, 1 mg/kg oral
  XO inhibitory activity, % of inhibition (vs. vehicle): ≧80%
[1]; rat plasma, 1 mg/kg oral, 1 mg/kg
  XO inhibitory activity, % of inhibition (vs. vehicle): ≧25%
[1]; rat plasma, 1 mg/kg oral, listed as present compound, 1 mg/kg
  XO inhibitory activity, % of inhibition (vs. vehicle): ≥ 25%
[1]; rat plasma, 10 mg/kg oral, 10 mg/kg
  XO inhibitory activity, % of inhibition (vs. vehicle): ≧40%
[1]; rat plasma, 10 mg/kg oral, listed as present compound, 10 mg/kg
  XO inhibitory activity, % of inhibition (vs. vehicle): ≥ 40%
[2]; 1 mg/kg
  Percentage of hypouricemic effect: ≥ 50%
[2]; 10 mg/kg
  Percentage of hypouricemic effect: ≥ 50%
[3]; 3 mg/kg
  Percentage of hypouricemic effect: ≥ 40%
[3]; 10 mg/kg
  Percentage of hypouricemic effect: ≥ 50%
[4]; rat kidney, 1 mg/kg oral
  XOR activity inhibition compared to the control animal: ≥ 60%
[4]; rat liver, 1 mg/kg oral, 1 mg/kg
  XOR inhibitory activity, % of inhibition (vs. vehicle): ≧80%
[4]; rat liver, 1 mg/kg oral, listed as present compound, 1 mg/kg
  XOR inhibitory activity, % of inhibition (vs. vehicle): ≥ 80%
[4]; rat liver, 1 mg/kg oral
  XOR activity inhibition compared to the control animal: ≥ 80%
[4]; rat vessel, 1 mg/kg oral, 1 mg/kg
  XOR inhibitory activity, % of inhibition (vs. vehicle): ≧30%
[4]; rat vessel, 1 mg/kg oral, listed as present compound, 1 mg/kg
  XOR inhibitory activity, % of inhibition (vs. vehicle): ≥ 30%
[4]; rat vessel, 10 mg/kg oral, 10 mg/kg
  XOR inhibitory activity, % of inhibition (vs. vehicle): ≧50%
[4]; rat vessel, 10 mg/kg oral, listed as present compound, 10 mg/kg
  XOR inhibitory activity, % of inhibition (vs. vehicle): ≥ 50%
[5]
  IC50: 1 to 5 nM
[6]
  Percentage of hypouricemic effect: ≥ 80%
